Eight compounds from ChEMBL document CHEMBL1201862, “PubChem BioAssay data set” (2004) can be followed below.

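The compound was tested at five concentrations on cells cultured in 96-well plates, with a 48-hour exposure period. GI50 is the concentration that inhibits growth by half.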 The source made the active and inactive calls. Cut-off read from the data, not from the text of the source: active = GI50 up to about 1.1 µM and inactive = higher.

Test in all cases: NCI-60 cell line screen, 48 h
In experiment [1] the test system is NCI-H226.
Experiment [2] has as its system MDA-MB-231.
Experiment [3] deals with NCI-H23.
For experiment [4], the system named is CAKI-1.
In experiment [5] the test system is PC-3.
Experiment [6] deals with OVCAR-3.
For experiment [7], the system named is EKVX.
Experiment [8] has as its system OVCAR-4.
The subject of experiment [9] is SF-539.
In experiment [10] the test system is OVCAR-5.
The test system of experiment [11] is DU-145.
Experiment [12] concerns 786-0.
Experiment [13] deals with K562.
The test system of experiment [14] is HCT-15.
The test system of experiment [15] is CCRF-CEM.
Experiment [16] concerns IGROV-1.
In experiment [17] the test system is SK-MEL-2.
Experiment [18] has as its system RXF 393.
Experiment [19] relates to SR.
For experiment [20], the system named is HCC 2998.

Regarding `COc1ccc(N(C(=O)OC(C)(C)C)[C@@H]2C(C)=C[C@H]([S@@+]([O-])c3ccc(C)cc3)[C@@H]3C(=O)N(C)C(=O)[C@@H]32)cc1`, the GI50 in experiment [1] was 16.6 µM (inactive); in experiment [2], 17.4 µM (inactive); in experiment [3], 20.9 µM (inactive); in [4], 25.3 µM (inactive); in [5], 23.9 µM (inactive); in [6], 27.1 µM (inactive). Besides, the GI50 is 2.13 µM (inactive) in experiment [7]; 16.5 µM (inactive) in [8]; 18.4 µM (inactive) in [9]; 21.9 µM (inactive) in experiment [10]; 30.2 µM (inactive) in [11]; 18.1 µM (inactive) in experiment [12]. In addition, the GI50 was 30 µM (inactive) in [13]; 27.5 µM in experiment [14]; 5.48 µM (inactive) in [15]; 10.7 µM (inactive) in [16]; 18.5 µM (inactive) in experiment [17]; 15.3 µM (inactive) in [18].
As for `CCN(CC)c1ccc2cc(C(N)=O)/c(=N/c3ccc(F)cc3)oc2c1`, the GI50 in experiment [1] was 36.4 µM (inactive); in experiment [2] it was 14.5 µM (inactive); in [3], 13.4 µM (inactive); in experiment [4], 45.9 µM (inactive); in experiment [5], 77.1 µM (inactive); in experiment [6], > 100 µM (inactive). For the same compound, the GI50 was 81.5 µM (inactive) in experiment [7]; 41.3 µM (inactive) in experiment [8]; > 100 µM (inactive) in experiment [10]; 14.8 µM (inactive) in [12]; > 100 µM (inactive) in experiment [13]; 4.65 µM (inactive) in [19]. The GI50 was 59.8 µM in experiment [14]; > 100 µM (inactive) in experiment [15]; 26.7 µM (inactive) in [16]; 35.7 µM (inactive) in experiment [17]; 59.2 µM (inactive) in [20]; 22.8 µM (inactive) in experiment [18].
Consider `COc1ccc(CNc2nc3ccccc3nc2-c2cccs2)cc1`, for which the GI50 in [1] was > 100 µM (inactive); in experiment [2] it was 23.6 µM (inactive); in experiment [3] it was 62.4 µM (inactive); in experiment [4], 15.1 µM (inactive); in experiment [6] it was 37.4 µM (inactive); in experiment [7], 97.9 µM (inactive). The GI50 in experiment [8] is 29.9 µM (inactive); in experiment [9], > 100 µM (inactive); in experiment [10], > 100 µM (inactive); in [11] it was > 100 µM (inactive); in experiment [12], 43.9 µM (inactive); in experiment [13], 23.6 µM (inactive). Further, the GI50 in experiment [19] is 15.6 µM (inactive); in experiment [14], 35.4 µM; in [15], 25.9 µM (inactive); in [16], 68.9 µM (inactive); in [20], 45.6 µM (inactive); in experiment [18] it was 23.8 µM (inactive).
Turning to `Oc1cc(O)c2c(c1)OC(c1ccc(O)c(O)c1)C(O)C2c1c(O)cc(O)c2c1OC(c1ccc(O)c(O)c1)C(O)C2` (centres undefined), the GI50 in experiment [1] was > 100 µM (inactive); in [2], > 100 µM (inactive); in experiment [3] it was > 100 µM (inactive); in experiment [4] it was 25.4 µM (inactive); in [5], > 100 µM (inactive); in [6] it was > 100 µM (inactive). The GI50 in [7], in [8], in experiment [9], in experiment [10], in experiment [11] and in [12] was > 100 µM (inactive) throughout. Moreover, the GI50 was above 100 µM in [14], > 100 µM (inactive) in experiment [16], > 100 µM (inactive) in experiment [17] and > 100 µM (inactive) in experiment [18].
For `COc1cc2cc(c1Cl)N(C)C(=O)C[C@H](OC(=O)[C@H](C)N(C)C(C)=O)[C@]1(C)O[C@H]1[C@H](C)[C@@H]1C[C@@](O)(NC(=O)O1)[C@H](OC)/C=C/C=C(/C)C2`, the GI50 was 0.0435 µM (active) in [1]; 0.0201 µM (active) in experiment [3]; 0.0531 µM (active) in [4]; 0.000505 µM (active) in experiment [5]; 0.0127 µM (active) in [6]; 0.355 µM (active) in experiment [7]. Moreover, the GI50 in experiment [8] is 0.794 µM (active); in [9], 0.015 µM (active); in [10], 6.98 µM (inactive); in [11], 0.00135 µM (active); in experiment [12], 0.025 µM (active); in experiment [13], 0.0176 µM (active). In addition, the GI50 in [19] is 0.0156 µM (active); in experiment [14] it was 0.0292 µM; in experiment [15], 0.0159 µM (active); in [16], 0.0239 µM (active); in [17] it was 0.0491 µM (active); in experiment [20], 0.0175 µM (active). For the same compound, the GI50 in experiment [18] is 0.0236 µM (active).
For `O=C(c1ccco1)N(C(=S)OCCOc1ccccc1)c1ccccc1`, the GI50 in experiment [2] was 16.4 µM (inactive); in experiment [3], 21.3 µM (inactive); in experiment [4], 18.7 µM (inactive); in experiment [5], 24.1 µM (inactive); in [6] it was 16.5 µM (inactive); in experiment [7], 22.1 µM (inactive). Besides, the GI50 in [8] is 20 µM (inactive); in experiment [9], 22.9 µM (inactive); in [10], 19.2 µM (inactive); in [11], 20.3 µM (inactive); in experiment [12] it was 19.7 µM (inactive); in experiment [13], 28.4 µM (inactive). In addition, the GI50 in [14] is 22.3 µM; in experiment [15] it was 20.1 µM (inactive); in [16], 17.7 µM (inactive); in [17], 19.6 µM (inactive); in experiment [20], 21 µM (inactive); in [18] it was 13.8 µM (inactive).
Consider `COP(=O)(OC)C(Nc1ccc(Cc2ccc(NC(c3ccco3)P(=O)(OC)OC)cc2)cc1)c1ccco1` (centres undefined), for which the GI50 is > 100 µM (inactive) in experiment [1]; 15.9 µM (inactive) in experiment [2]; 14 µM (inactive) in [3]; 26.3 µM (inactive) in experiment [4]; 52.7 µM (inactive) in experiment [5]; 85.1 µM (inactive) in [6]. Moreover, the GI50 was 20.9 µM (inactive) in experiment [7]; > 100 µM (inactive) in [8]; 4.79 µM (inactive) in [9]; 46.8 µM (inactive) in [10]; > 100 µM (inactive) in experiment [11]; 13.8 µM (inactive) in [12]. The GI50 in experiment [13] was > 100 µM (inactive); in experiment [14], above 100 µM; in [15], > 100 µM (inactive); in experiment [16] it was 31.4 µM (inactive); in [17], 14 µM (inactive); in [18], 5.83 µM (inactive).
On to `CN(C)CCN(C)c1ccc2c(=O)n(CCN(C)C)c(=O)n3c4ccccc4c(=O)c1c23`, for which the GI50 was 0.29 µM (active) in experiment [1]; 0.54 µM (active) in experiment [3]; < 0.026 µM (active) in [4]; 0.973 µM (active) in experiment [5]; 1.89 µM (inactive) in [6]; 1.66 µM (inactive) in [7]. The GI50 is 0.364 µM (active) in experiment [8]; 0.324 µM (active) in [9]; 1.87 µM (inactive) in experiment [10]; 0.128 µM (active) in experiment [11]; 0.108 µM (active) in experiment [12]; 0.14 µM (active) in experiment [13]. Further, the GI50 is < 0.01 µM (active) in experiment [19]; 0.179 µM in [14]; < 0.0258 µM (active) in experiment [15]; 0.426 µM (active) in experiment [16]; 2.87 µM (inactive) in experiment [17]; 0.454 µM (active) in experiment [20]. In addition, in [18], the GI50 was 2.81 µM (inactive).
